The record followed here is patent US20100093973A1, “POLY(AMINO ACID) COMPOUND HAVING INHIBITORY ACTIVITY ON ABSORPTION OF PHOSPHORUS AND PHOSPHORUS ABSORPTION INHIBITOR” (priority 2007, published 2010).

The test system of the assay is absorption of phosphorus. In words: Evaluation of efficacy as phosphorus absorption inhibitors: serum radioactivity AUC (0-120 min) after oral 32P NaH2PO4 in rats, inhibitory rate. It is filed as in vivo. The settings on record: rats of SD line, 32P NaH2PO4 given orally 5 min later, serum radioactivity AUC 0-120 min vs control; for 50 mg/kg Inhibition (%): oral dose 50 mg/5 mL/kg; for Inhibitory Rate (%) of Phosphorus Absorption: oral dose 100 mg/5 mL/kg. The method, then:
Seven-week-old male rats of SD line (available from SANKYO Labo-Service Co., Ltd.), as test animals, were kept and acclimatized using the usual feed (Solid CRF-1 available from ORIENTAL Yeast Co., Ltd.) and they were used in the following tests after they were fasted overnight. Each candidate substance (synthesized compound) dissolved in distilled water for injection (Otsuka Pharmaceutical Co., Ltd.) was orally administered in a dose of 100 mg/5 mL/kg or 50 mg/5 mL/kg and after 5 minutes from the administration, 3 mg/3 mL/kg, 1 MBq/kg of an NaH2PO4 solution containing ^32P (available from PerkinElmer Company) was orally administered. Subsequently, the blood was collected with the elapse of time through the caudal vein of the test animal to thus obtain the serum thereof and the radioactivity of 40 μL of the serum was determined using a liquid scintillation counter. The inhibitory rate (%) for each candidate compound was calculated on the basis of the foregoing measured values according to the following equation: […]

“TAA[PheDab(Dab)2]3 Hydrochloride [Example 71]”: the “50 mg/kg Inhibition (%)” value is on record as 54%. For “TETA(TyrOrn)2(OrnOrn)2 Hydrochloride [Example 52]”, the “50 mg/kg Inhibition (%)” value is given as 59) %. The same measure, in the same setting: the figure for “TETA(D-PheOrn)2(OrnOrn)2 Hydrochloride [Example 46]” is 62%; for “TETA[Orn(Orn)2]2(Orn)2 TFA Salt [Example 36]” it is 55%. Consider “TETA(Orn)2[Orn(Orn)2]2 TFA Salt [Example 34]”, for which the “50 mg/kg Inhibition (%)” value was found to be 63%. As to “TETA(Orn)2[Dab(Dab)2]2 Hydrochloride [Example 59]”, the “50 mg/kg Inhibition (%)” value stood at 57%. For “TETA(Phe-δOrnOrn)4 Hydrochloride [Example 40]”, the “50 mg/kg Inhibition (%)” value is given as 76%. Take “TAA(TrpOrnOrn)3 Hydrochloride [Example 60]”: the “50 mg/kg Inhibition (%)” value was determined as 64%. SPM(Orn)4 Hydrochloride [Example 9]: the “Inhibitory Rate (%) of Phosphorus Absorption” value (from here on “Inhibitory Rate (%)”) is on record as 30%.

For the substance “TETA(TyrOrn)2(OrnOrn)2 TFA Salt [Example 42]”, the “50 mg/kg Inhibition (%)” value came out at 59%.

For “TETA(PheOrn)2[Orn(Orn)Orn]2 Hydrochloride [Example 43]”, the “50 mg/kg Inhibition (%)” value turned out to be 60%. Still for that read-out and setting: in the case of “TETA(OrnOrnOrn)2(ProOrnOrn)2 Hydrochloride [Example 65]” it was 57%; in that of “TETA[Orn(Orn)2]2(Orn)2 Hydrochloride [Example 39]”, 55) %; in that of “TETA(OrnOrn)2(ChaOrn)2 Hydrochloride [Example 58]”, 79%. For the substance “SPM(Lys)2(Arg)2 Hydrochloride [Example 23]”, the “Inhibitory Rate (%)” value is given as 45%. On to “TETA(PheOrn)4 Hydrochloride [Example 57]”, for which the “50 mg/kg Inhibition (%)” value amounted to 69%. Take “TETA(D-Phe-Orn-Orn)4 Hydrochloride [Example 55]”: the “50 mg/kg Inhibition (%)” value was 85%. “TETA(Orn)2[Orn(Orn)2]2 Hydrochloride [Example 38]”: the “50 mg/kg Inhibition (%)” value is 63) %. Take “TAA(TrpOrnDab)3 Hydrochloride [Example 61]”: the “50 mg/kg Inhibition (%)” value is reported as 70%.

As to TETA[Lys(Dab)2]4 TFA Salt [Example 54], the “50 mg/kg Inhibition (%)” value is 53%.

Consider “TAA[(Benzoyl-4-methylene)DETA]3 Hydrochloride [Example 76]”, for which the “50 mg/kg Inhibition (%)” value is 78%.

Turning to “TEPA(PheOrn)5 Hydrochloride [Example 64]”, the “50 mg/kg Inhibition (%)” value worked out at 87%. As for “SPM(Arg)2(Lys)2 Hydrochloride [Example 19]”, the “Inhibitory Rate (%)” value is given as 35%.

Turning to “TETA(TrpOrn)2(OrnOrn)2 Hydrochloride [Example 47]”, the “50 mg/kg Inhibition (%)” value worked out at 72%. The same measure, in the same setting: in the case of “TETA(PheOrn)2(OrnOrn)2 Hydrochloride [Example 37]” it was 60%. Regarding “TETA(PheOrnDab)4 Hydrochloride [Example 67]”, the “50 mg/kg Inhibition (%)” value is listed as 84%.

For the substance “SPM(Lys)2(Orn)2 Hydrochloride [Example 10]”, the “Inhibitory Rate (%)” value came out at 30%. For SPM(Lys)9 Hydrochloride [Example 27], the “Inhibitory Rate (%)” value turned out to be 64%. Take SPM(Lys)8 Hydrochloride [Example 11]: the “Inhibitory Rate (%)” value is 44%. Still for that read-out and setting: the figure for SPM(Orn)12 Hydrochloride [Example 8] is 63%.

SPM(Orn)2 Hydrochloride [Example 17]: the “Inhibitory Rate (%)” value came to 30%.

Regarding “TAA(PheOrnOrn)3 Hydrochloride [Example 48]”, the “50 mg/kg Inhibition (%)” value is 74%.

Regarding “TETA(PheOrn(3-Ala)4 Hydrochloride [Example 68]”, the “50 mg/kg Inhibition (%)” value is 73%.

As to “TETA(OrnPheOrn)4 Hydrochloride [Example 70]”, the “50 mg/kg Inhibition (%)” value was determined as 57%.

“TETA(Phe-δOrnOrn)5 Hydrochloride [Example 45]”: the “50 mg/kg Inhibition (%)” value is on record as 76%.
